Consider 18 molecules from patent US20250011288A1 (BRISTOL-MYERS SQUIBB COMPANY, priority 2021, published 2025).

The assay addresses T1, human RXFP1 (Homo sapiens, UniProt Q9HBX9).
T1 construct: expressed in transfected cells
T1 sequence (Q9HBX9 1-757): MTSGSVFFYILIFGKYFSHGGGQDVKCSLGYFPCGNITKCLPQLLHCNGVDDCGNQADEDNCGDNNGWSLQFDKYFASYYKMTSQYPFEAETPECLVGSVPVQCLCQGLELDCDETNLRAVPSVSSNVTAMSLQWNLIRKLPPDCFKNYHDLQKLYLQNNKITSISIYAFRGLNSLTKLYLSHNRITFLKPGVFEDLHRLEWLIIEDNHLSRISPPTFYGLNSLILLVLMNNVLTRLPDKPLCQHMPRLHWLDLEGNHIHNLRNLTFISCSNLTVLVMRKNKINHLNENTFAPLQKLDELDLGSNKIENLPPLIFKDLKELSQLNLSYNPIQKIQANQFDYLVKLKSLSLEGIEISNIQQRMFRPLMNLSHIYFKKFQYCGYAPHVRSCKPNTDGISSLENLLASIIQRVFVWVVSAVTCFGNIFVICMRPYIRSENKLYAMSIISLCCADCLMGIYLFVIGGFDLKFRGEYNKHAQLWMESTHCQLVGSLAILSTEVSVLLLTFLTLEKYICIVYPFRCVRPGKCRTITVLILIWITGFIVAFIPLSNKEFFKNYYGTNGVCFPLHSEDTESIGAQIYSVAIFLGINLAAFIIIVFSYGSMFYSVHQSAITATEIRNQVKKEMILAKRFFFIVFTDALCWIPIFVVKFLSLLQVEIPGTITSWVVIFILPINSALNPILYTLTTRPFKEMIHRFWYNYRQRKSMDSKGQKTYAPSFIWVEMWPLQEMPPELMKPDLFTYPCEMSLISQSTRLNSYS
As to the kind of experiment: human RXFP1 (hRXFP1) HEK293 cAMP assay (HTRF). The format is cell-based. As to conditions: HEK293 cells stably expressing human RXFP1, 30 min at room temperature. The method in brief: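 Intracellular cAMP was quantified by HTRF after a 30 min room-temperature exposure of hRXFP1-HEK293 cells (1500/well) to compound at 0.010 nM–50 µM final, 2% DMSO. Buffer was HBSS with 20 mM HEPES, 0.05% BSA and 0.5 mM IBMX; values came from a 4-parameter logistic fit.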
The EC50 is the concentration that produces a half-maximal response. `COc1ncc(C2=NOC3CN(CCS(C)(=O)=O)CC23)cc1C(=O)N[C@H]1[C@@H](C(=O)Nc2ccc(F)c(C(F)(F)F)c2)[C@H]2CC[C@@H]1/C2=C\C1CC1` (stereo partly drawn) [Example 178, N-[(1R,2R,3S,4R, 7Z)-7-(cyclopropyl-methylidene)-3-{[4-fluoro-3-(trifluoromethyl)phenyl]carbamoyl}bicyclo[2.2.1]heptan-2-yl]-5-[5-(2-methanesulfonylethyl)-3aH,4H,5H,6H, 6aH-pyrrolo[3,4-d][1,2]oxazol-3-yl]-2-methoxypyridine-3-carboxamide]: it took 1.6 nM to reach a half-maximal effect (EC50).

`COc1cnc(-c2cc([C@H](OC(=O)NC3CCC3)C(F)(F)F)ccc2F)nc1C(=O)N[C@@H]1C2CCC(/C2=C/C(F)(F)F)[C@@H]1C(=O)Nc1ccc(F)c(C(F)(F)F)c1` (stereo partly drawn) [Example 37, (1S)-2,2,2-trifluoro-1-14-fluoro-3-(4-{[(2R,3S,7Z)-3-{[4-fluoro-3-(trifluoromethyl)phenyl]carbamoyl}-7-(2,2,2-trifluoroethylidene)bicyclo[2.2.1]heptan-2-yl]carbamoyl}-5-methoxypyrimidin-2-yl)phenyl]ethyl N-cyclobutylcarbamate] had an EC50 of 95 nM.

The molecule `COc1ncc(C2=NOC3CC(CO)CC23)cc1C(=O)N[C@H]1[C@@H](C(=O)Nc2ccc(F)c(C(F)(F)F)c2)[C@H]2CC[C@@H]1/C2=C\c1csc(C)n1` (stereo partly drawn) [Example 120, N-((1R,2R,3S,4R,Z)-3-((4-fluoro-3-(trifluoromethyl)phenyl)carbamoyl)-7-((2-methylthiazol-4-yl)methylene)bicyclo [2.2.1]heptan-2-yl)-5-(5-(hydroxymethyl)-3a,5,6,6a-tetrahydro-4H-cyclopenta[d]isoxazol-3-yl)-2-methoxynicotinamide] returned an EC50 of 4.8 nM.

The molecule `COc1ncc(Cl)cc1C(=O)N[C@@H]1C2CCC(/C2=C/C(F)(F)F)[C@@H]1C(=O)Nc1ccc(F)c(C(F)(F)F)c1` (stereo partly drawn) [Example 11, 5-chloro-N-[(2R,3S,7Z)-3-{[4-fluoro-3-(trifluoromethyl)phenyl]carbamoyl}-7-(2,2,2-trifluoroethylidcne)bicyclo[2. 2.1]heptan-2-yl]-2-methoxypyridine-3-carboxamide] returned an EC50 of 940 nM.

`COc1ncc(C2=NOC3COCC23)cc1C(=O)N[C@H]1[C@@H](C(=O)Nc2ccc(F)c(C(F)(F)F)c2)[C@H]2CC[C@@H]1/C2=C\C1CCCC1` (stereo partly drawn) [Example 136, N-((1R,2R,3S,4R,Z)-7-(cyclopentyl-methylene)-3-((4-fluoro-3-(trifluoromethyl)phenyl)carbamoyl)bicyclo[2.2.1]heptan-2-yl)-2-methoxy-5-(3a,4,6,6a-tetrahydrofuro[3,4-d]isoxazol-3-yl)nicotinamide] had an EC50 of 2.5 nM.

In the case of `COc1ncc(C2=NOC3CC(O)CC23)cc1C(=O)N[C@H]1[C@@H](C(=O)Nc2ccc(F)c(C(F)(F)F)c2)[C@H]2CC[C@@H]1/C2=C\CCC(F)(F)F` (stereo partly drawn) [Example 121, N-((1R,2R,3S,4R,Z)-3-((4-fluoro-3-(trifluoromethyl)phenyl)carbamoyl)-7-(4,4,4-trifluorobutylidene)bicyclo[2.2.1]heptan-2-yl)-5-(5-hydroxy-3a,5,6,6a-tetrahydro-4H-cyclopenta[d]isoxazol-3-yl)-2-methoxynicotinamide], the EC50 turned out to be 1.3 nM.

In turn, `COc1cc2c(cc1C(=O)N[C@@H]1C3CCC(/C3=C/C3CC3)[C@@H]1C(=O)Nc1ccc(F)c(C(F)(F)F)c1)CCN(CCS(C)(=O)=O)C2` (stereo partly drawn) [Example 92] registered a concentration giving a half-maximal response (EC50) of 4800 nM.

As to `COc1ncc(-c2cc([C@H](OC(=O)NC3CC3)C(F)(F)F)ccc2F)cc1C(=O)N[C@H]1[C@@H](C(=O)Nc2ccc(F)c(C(F)(F)F)c2)[C@H]2CC[C@@H]1/C2=C\C1CC(F)(F)C1` [Example 167, (1S)-1-[3-(5-{[(1R,2R,3S,4R, 7Z)-7-[(3,3-difluorocyclobutyl)methylidene]-3-{[4-fluoro-3-(trifluoromethyl)phenyl]carbamoyl}bicyclo[2.2.1]heptan-2-yl]carbamoyl}-6-methoxypyridin-3-yl)-4-fluorophenyl]-2,2,2-trifluoroethyl N-cyclopropyl-carbamate], a half-maximal effect (EC50) was put at 1.7 nM.

On to `COc1ccncc1C(=O)N[C@@H]1C2CCC(C2=C(C)C)[C@@H]1C(=O)Nc1ccc(F)c(C(F)(F)F)c1` (stereo partly drawn) [Example 2, N-[(2R,3S)-3-{[4-fluoro-3-(trifluoromethyl)phenyl]carbamoyl}-7-(propan-2-ylidene)bicyclo [2.2.1]heptan-2-yl]-4-methoxypyridine-3-carboxamide], for which a half-maximal effect (EC50) was put at 660 nM.

For `CC1Cc2cc(C3=NOC4CC(O)CC34)cc(C(=O)N[C@@H]3C4CCC(/C4=C/C4CC4)[C@@H]3C(=O)Nc3ccc(F)c(C(F)(F)F)c3)c2O1` (stereo partly drawn) [Example 155, N-[(1R,2R,3S,4R, 7Z)-7-(cyclopropyl-methylidene)-3-{[4-fluoro-3-(trifluoromethyl)phenyl]carbamoyl}bicyclo[2.2.1]heptan-2-yl]-5-{5-hydroxy-3aH,4H,5H,6H, 6H-cyclopenta[d][1,2]oxazol-3-yl}-2-methyl-2,3-dihydro-1-benzofuran-7-carboxamide], a half-maximal effect (EC50) was put at 6.8 nM.

On to `COc1ncc(C2=NOC3CC(CO)CC23)cc1C(=O)N[C@@H]1C2CCC(/C2=C/c2csc(C)n2)[C@@H]1C(=O)N[C@H](C)C1(C)CC1` (stereo partly drawn) [Example 99], for which the EC50 turned out to be 3.2 nM.

As for `COc1ncc(C2=NOC(C)(CO)C2)cc1C(=O)N[C@H]1[C@@H](C(=O)Nc2ccc(F)c(C(F)(F)F)c2)[C@H]2CC[C@@H]1/C2=C\C1CC1` (stereo partly drawn) [Example 157, N-[(1R,2R,3S,4R, 7Z)-7-(cyclopropyl-methylidene)-3-{[4-fluoro-3-(trifluoromethyl)phenyl]carbamoyl}bicyclo[2.2.1]heptan-2-yl]-5-[5-(hydroxymethyl)-5-methyl-4,5-dihydro-1,2-oxazol-3-yl]-2-methoxypyridine-3-carboxamide], the EC50 is 5.6 nM.

As to `COc1ccc(-c2ccc(C(=O)O)cc2)nc1C(=O)N[C@@H]1C2CCC(C2=C(C)C)[C@@H]1C(=O)Nc1ccc(F)c(C(F)(F)F)c1` (stereo partly drawn) [Example 22, 4-(6-{[(2R,3S)-3-{[4-fluoro-3-(trifluoromethyl)phenyl]carbamoyl}-7-(propan-2-ylidene)bicyclo [2.2.1]heptan-2-yl]carbamoyl}-5-methoxypyridin-2-yl)benzoic acid], a half-maximal response (EC50) required 1700 nM.

As for `COc1ncc(-c2cc([C@H](OC(=O)Nc3ccccc3)C(F)(F)F)ccc2F)nc1C(=O)N[C@@H]1C2CCC(/C2=C/C(F)(F)F)[C@@H]1C(=O)Nc1ccc(F)c(C(F)(F)F)c1` (stereo partly drawn) [Example 35, (1S)-2,2,2-trifluoro-1-[4-fluoro-3-(6-{[(2R,3S,7Z)-3-{[4-fluoro-3-(trifluoromethyl)phenyl]carbamoyl}-7-(2,2,2-trifluoroethylidene)bicyclo[2.2.1]heptan-2-yl]carbamoyl}-5-methoxypyrazine-2-yl)phenyl]ethyl N-phenylcarbamate], it took 42 nM to reach a half-maximal effect (EC50).

`COc1ncc(C(=O)OC(C)(C)C)cc1C(=O)N[C@H]1[C@@H](C(=O)Nc2ccc(F)c(C(F)(F)F)c2)[C@H]2CC[C@@H]1/C2=C\C1CC1` [Example 78, tert-butyl 5-(((1R,2R,3S,4R,Z)-7-(cyclopropylmethylene)-3-((4-fluoro-3-(trifluoromethyl)phenyl)carbamoyl)bicyclo[2.2.1]heptan-2-yl)carbamoyl)-6-methoxynicotinate] returned a concentration for a half-maximal effect (EC50) of 140 nM.

Molecule `COc1ncc(-c2c(C)nn3c2COCC3)cc1C(=O)N[C@H]1[C@@H](C(=O)Nc2ccc(F)c(C(F)(F)F)c2)[C@H]2CC[C@@H]1/C2=C\C1CCCC1` [Example 150, N-[(1R,2R,3S,4R, 7Z)-7-(cyclopentyl-methylidene)-3-{[4-fluoro-3-(trifluoromethyl)phenyl]carbamoyl}bicyclo[2.2.1]heptan-2-yl]-2-methoxy-5-{2-methyl-4H,6H,7H-pyrazolo[3,2-c][1,4]oxazin-3-yl}pyridine-3-carboxamide] gave an EC50 of 5.3 nM.

Molecule `COc1ncc(C(=O)NCC2(S(C)(=O)=O)CC2)cc1C(=O)N[C@H]1[C@@H](C(=O)N[C@H](C)C2(C)CC2)[C@H]2CC[C@@H]1/C2=C\C1CC1` [Example 149, N3-[(1R,2R,3S,4R, 7Z)-7-(cyclopropyl-methylidene)-3-{[(1R)-1-(1-methylcyclopropyl)ethyl]carbamoyl}bicyclo[2.2.1]heptan-2-yl]-N5-[(1-methanesulfonylcyclopropyl)methyl]-2-methoxypyridine-3,5-dicarboxamide] displayed an EC50 of 2.7 nM.

With `COc1ncc(-c2cc([C@H](OC(=O)NC3CC3)C(F)(F)F)ccc2F)cc1C(=O)N[C@H]1[C@@H](C(=O)Nc2ccc(F)c(C(F)(F)F)c2)[C@H]2CC[C@@H]1/C2=C\C(C)C` [Example 166, (1S)-2,2,2-trifluoro-1-[4-fluoro-3-(5-{[(1R,2R,3S,4R, 7Z)-3-{[4-fluoro-3-(trifluoromethyl)phenyl]carbamoyl}-7-(2-methylpropylidene)bicyclo[2.2.1]heptan-2-yl]carbamoyl}-6-methoxypyridin-3-yl)phenyl]ethyl N-cyclopropyl-carbamate], the EC50 was 2.5 nM.
